According to ChEMBL document CHEMBL4610081, “Anti-inflammatory Metabolites from Chaetomium nigricolor” (J Nat Prod, 2020):

What was measured:
[1] = system: RAW264.7; experiment: Trans-suppression of NFkappaB in mouse RAW264.7 cells assessed as LPS-induced cytosol-p50 level at 5 uM preincubated for 3 hrs followed by LPS-stimulation and measured after 1 hr by Western blot analysis (reference value: 0.28); assay type: cell-based
[2] = system: RAW264.7; experiment: Trans-suppression of NFkappaB in mouse RAW264.7 cells assessed as LPS-induced nuclear-p65 level at 2.5 uM preincubated for 3 hrs followed by LPS-stimulation and measured after 1 hr by Western blot analysis (reference value: 3.3); assay type: cell-based
[3] = system: RAW264.7; experiment: Antiinflammatory activity against mouse RAW264.7 cells assessed as reduction in LPS-induced IL6 mRNA expression preincubated for 3 hrs followed by LPS-stimulation and measured after 12 hrs by RT-PCR analysis; assay type: functional, cell-based
[4] = system: RAW264.7; experiment: Inhibition of LPS-induced JNK phosphorylation in mouse RAW264.7 cell at 2.5 uM preincubated for 3 hrs followed by LPS-stimulation and measured after 1 hr by Western blot analysis (reference value: 8.88); assay type: cell-based
[5] = system: RAW264.7; experiment: Antiinflammatory activity against mouse RAW264.7 cells assessed as LPS-induced COX-2 mRNA expression at 2.5 uM preincubated for 3 hrs followed by LPS-stimulation and measured after 24 hrs by RT-PCR analysis (reference value: 14.39); assay type: functional
[6] = system: RAW264.7; experiment: Inhibition of LPS-induced ERK phosphorylation in mouse RAW264.7 cell at 10 uM preincubated for 3 hrs followed by LPS-stimulation and measured after 1 hr by Western blot analysis (reference value: 6.92); assay type: cell-based
[7] = system: RAW264.7; experiment: Trans-suppression of NFkappaB in mouse RAW264.7 cells assessed as LPS-induced IKB-apha phosphorylation at 10 uM preincubated for 3 hrs followed by LPS-stimulation and measured after 1 hr by Western blot analysis (reference value: 6.04); assay type: cell-based
[8] = system: RAW264.7; experiment: Trans-suppression of NFkappaB in mouse RAW264.7 cells assessed as LPS-induced cytosol-p65 level at 10 uM preincubated for 3 hrs followed by LPS-stimulation and measured after 1 hr by Western blot analysis (reference value: 0.09); assay type: cell-based
[9] = system: RAW264.7; experiment: Trans-suppression of NFkappaB in mouse RAW264.7 cells assessed as LPS-induced nuclear-p65 level at 5 uM preincubated for 3 hrs followed by LPS-stimulation and measured after 1 hr by Western blot analysis (reference value: 3.3); assay type: cell-based
[10] = system: RAW264.7; experiment: Inhibition of LPS-induced JNK protein expression in mouse RAW264.7 cell at 2.5 uM preincubated for 3 hrs followed by LPS-stimulation and measured after 1 hr by Western blot analysis (reference value: 1.21); assay type: functional
[11] = system: RAW264.7; experiment: Antiinflammatory activity against mouse RAW264.7 cells assessed as inhibition of LPS-induced NO production preincubated for 3 hrs followed by LPS-stimulation and measured after 24 hrs by Griess reagent based assay; assay type: functional, cell-based
[12] = system: RAW264.7; experiment: Trans-suppression of NFkappaB in mouse RAW264.7 cells assessed as LPS-induced IKB-apha degradation at 2.5 uM preincubated for 3 hrs followed by LPS-stimulation and measured after 1 hr by Western blot analysis (reference value: 0.29); assay type: cell-based
[13] = system: RAW264.7; experiment: Trans-suppression of NFkappaB in mouse RAW264.7 cells assessed as LPS-induced IKB-apha phosphorylation at 5 uM preincubated for 3 hrs followed by LPS-stimulation and measured after 1 hr by Western blot analysis (reference value: 6.04); assay type: cell-based
[14] = system: RAW264.7; experiment: Antiinflammatory activity against mouse RAW264.7 cells assessed as LPS-induced INOS mRNA expression at 5 uM preincubated for 3 hrs followed by LPS-stimulation and measured after 24 hrs by RT-PCR analysis (reference value: 8.2); assay type: functional
[15] = target: T1, MAP kinase p38 (Mus musculus) (UniProt P47811+O08911+Q9WUI1+Q9Z1B7); experiment: Inhibition of LPS-induced p38 MAPK phosphorylation in mouse RAW264.7 cell at 2.5 uM preincubated for 3 hrs followed by LPS-stimulation and measured after 1 hr by Western blot analysis (reference value: 5.59); assay type: cell-based
[16] = system: RAW264.7; experiment: Inhibition of LPS-induced ERK protein expression in mouse RAW264.7 cell at 10 uM preincubated for 3 hrs followed by LPS-stimulation and measured after 1 hr by Western blot analysis (reference value: 1.13); assay type: functional
[17] = system: RAW264.7; experiment: Antiinflammatory activity against mouse RAW264.7 cells assessed as reduction in LPS-induced IL-1beta mRNA expression preincubated for 3 hrs followed by LPS-stimulation and measured after 12 hrs by RT-PCR analysis; assay type: functional, cell-based
[18] = system: RAW264.7; experiment: Trans-suppression of NFkappaB in mouse RAW264.7 cells assessed as LPS-induced cytosol-p50 level at 2.5 uM preincubated for 3 hrs followed by LPS-stimulation and measured after 1 hr by Western blot analysis (reference value: 0.28); assay type: cell-based
[19] = system: RAW264.7; experiment: Antiinflammatory activity against mouse RAW264.7 cells assessed as LPS-induced INOS mRNA expression at 10 uM preincubated for 3 hrs followed by LPS-stimulation and measured after 24 hrs by RT-PCR analysis (reference value: 8.2); assay type: functional
[20] = system: RAW264.7; experiment: Trans-suppression of NFkappaB in mouse RAW264.7 cells assessed as LPS-induced IKB-apha degradation at 10 uM preincubated for 3 hrs followed by LPS-stimulation and measured after 1 hr by Western blot analysis (reference value: 0.29); assay type: cell-based
[21] = system: RAW264.7; experiment: Trans-suppression of NFkappaB in mouse RAW264.7 cells assessed as LPS-induced cytosol-p50 level at 10 uM preincubated for 3 hrs followed by LPS-stimulation and measured after 1 hr by Western blot analysis (reference value: 0.28); assay type: cell-based
[22] = system: RAW264.7; experiment: Antiinflammatory activity against mouse RAW264.7 cells assessed as inhibition of LPS-induced PGE2 production preincubated for 3 hrs followed by LPS-stimulation and measured after 24 hrs by ELISA; assay type: functional, cell-based
[23] = system: RAW264.7; experiment: Inhibition of LPS-induced JNK phosphorylation in mouse RAW264.7 cell preincubated for 3 hrs followed by LPS-stimulation and measured after 1 hr by Western blot analysis; assay type: cell-based
[24] = system: RAW264.7; experiment: Inhibition of LPS-induced p38 MAPK protein expression in mouse RAW264.7 cell at 5 uM preincubated for 3 hrs followed by LPS-stimulation and measured after 1 hr by Western blot analysis (reference value: 1.1); assay type: functional
[25] = system: RAW264.7; experiment: Trans-suppression of NFkappaB in mouse RAW264.7 cells assessed as LPS-induced cytosol-p65 level at 5 uM preincubated for 3 hrs followed by LPS-stimulation and measured after 1 hr by Western blot analysis (reference value: 0.09); assay type: cell-based
[26] = target: T1, MAP kinase p38 (Mus musculus); experiment: Inhibition of LPS-induced p38 MAPK phosphorylation in mouse RAW264.7 cell at 5 uM preincubated for 3 hrs followed by LPS-stimulation and measured after 1 hr by Western blot analysis (reference value: 5.59); assay type: cell-based
[27] = system: RAW264.7; experiment: Antiinflammatory activity against mouse RAW264.7 cells assessed as LPS-induced COX-2 mRNA expression at 10 uM preincubated for 3 hrs followed by LPS-stimulation and measured after 24 hrs by RT-PCR analysis (reference value: 14.39); assay type: functional
[28] = system: RAW264.7; experiment: Inhibition of LPS-induced p38 MAPK protein expression in mouse RAW264.7 cell at 10 uM preincubated for 3 hrs followed by LPS-stimulation and measured after 1 hr by Western blot analysis (reference value: 1.1); assay type: functional

SMILES: COc1cc(OC)c2c(O)c3c(=O)cc(C)oc3c(-c3c(O)cc4cc(O)c5c(=O)cc(C)oc5c4c3OC)c2c1 (atropisomer aS) [ASPERPYRONE A]
- fold change (FC) [1]: 0.87
- fold change (FC) [2]: 3.28
- Activity [3]: Dose-dependent effect
- fold change (FC) [4]: 8.73
- fold change (FC) [5]: 12.92
- fold change (FC) [6]: 7.03
- fold change (FC) [7]: 2.3
- fold change (FC) [8]: 1.04
- fold change (FC) [9]: 2.57
- fold change (FC) [10]: 1.12
- Activity [11]: Dose-dependent effect
- IC50 [11]: 8.6 µM
- fold change (FC) [12]: 0.31
- fold change (FC) [13]: 3.21
- fold change (FC) [14]: 2.62
- fold change (FC) [15]: 5.63
- fold change (FC) [16]: 1.1
- Activity [17]: Dose-dependent effect
- fold change (FC) [18]: 0.55
- fold change (FC) [19]: 1.03
- fold change (FC) [20]: 0.81
- fold change (FC) [21]: 1.12
- inhibition [22]: Dose-dependent effect
- inhibition [23]: Dose-dependent effect
- fold change (FC) [24]: 0.98
- fold change (FC) [25]: 0.78
- fold change (FC) [26]: 5.63
- fold change (FC) [27]: 3.69
- fold change (FC) [28]: 1.05
